Assay results from patent publication US20240293314A1, “COMPOSITION FOR PARTICLE-MEDIATED TRANSPORT OF A DISSOLVED ACTIVE AGENT INTO HAIR FOLLICLES” (Charité – Universitätmedizin Berlin, priority 2021, published 2024).

What was measured:
[1] = type: in vitro ADME, porcine; conditions: pig, 1 h, 0.003 % w/w
Description: Three particle-free and three particle-containing formulations were prepared, each containing 0.003% F (dissolved in dispersion medium), and the penetration of F into hair follicles (HF) was studied.
Fluorescein (0.003% w/w) was added to dispersion media that contained no particles (water, TPGS-solution (1% w/w) or ethanol (96% v/v)) and was added to dispersion media that contained particles (1. curcumin nanocrystals (5% w/w dispersed in TPGS solution (1% w/w)—particle size was 257 nm, polydispersity index 0.26 determined by photon correlation spectroscopy); 2. quercetin nanocrystals (5% w/w dispersed in TPGS solution (1% w/w)—particle size was 580 nm, polydispersity index 0.36, determined by photon correlation spectroscopy); 3. Lipid nanoparticles (10% w/w dispersed in TPGS solution (1% w/w)—particle size was 195 nm, polydispersity index 0.09, determined by photon correlation spectroscopy).
The formulations (50 μl on a skin areal of 4 cm^2) were applied on fresh porcine ears (ventral side, massage for 60 s, penetration time 1 h at 32° C.). Skin biopsies (Ø 15 mm) were obtained from the treated skin areas from which skin sections (40 μm, 100 sections/biopsy) were prepared. The skin sections and the hair follicle sections were analyzed by epifluorescence microscopy. Images were taken and the penetration depth of the fluorescein was directly measured (n=3). […]

[2] = type: in vitro ADME
Description: FIG. 1: Confocal microscopic image of a skin section with hair follicle after topical application of fluorescein natrium salt (green fluorescent dye) dissolved in dispersion medium together with a caffeine nanosuspension.
Particle-containing formulations were applied as dispersions (particles in a liquid or semi-solid dispersion medium). Besides the particles, the dispersion medium also contained dissolved molecules, name the fluorescent molecule fluorescein, which is an organic compound soluble in water and alcohol.

In the case of `O=C1OC2(c3ccc(O)cc3Oc3cc(O)ccc32)c2ccccc21` [F, Fluorescein], the “penetration depth with particles compared to the particle-free formulations” value [1] is reported as over 160% and the “penetration into the hair follicles” value [2] is reported as “no efficient penetration into the hair follicles”.
